The nature of assay [1]: Cytotoxicity against human DU145 cells by fluorescent Calcein-AM assay. Format: functional, cell-based. Conditions: du-145; call rule not given here.
Assay [2] can be described thus: Selectivity index, ratio of IC50 for purified human red blood cell PP2A (unknown origin) to IC50 for purified rabbit skeletal muscle PP1.
The nature of assay [3]: Cytotoxicity against human HCT116 cells by fluorescent Calcein-AM assay. The format is functional, cell-based. Conditions: hct-116.
Assay [4] deals with MCF7. Put plainly: Cytotoxicity against human MCF7 cells by fluorescent Calcein-AM assay. The format is functional, cell-based.
Assay [5] concerns the target Serine/threonine-protein phosphatase PP1-alpha catalytic subunit (Oryctolagus cuniculus, UniProt P62139). Kind of assay: Inhibition of purified rabbit skeletal muscle protein phosphatase 1 using DiFMUP substrate incubated for 30 mins.

Serine/threonine-protein phosphatase PP1-alpha catalytic subunit, sequence (P62139 whole entry): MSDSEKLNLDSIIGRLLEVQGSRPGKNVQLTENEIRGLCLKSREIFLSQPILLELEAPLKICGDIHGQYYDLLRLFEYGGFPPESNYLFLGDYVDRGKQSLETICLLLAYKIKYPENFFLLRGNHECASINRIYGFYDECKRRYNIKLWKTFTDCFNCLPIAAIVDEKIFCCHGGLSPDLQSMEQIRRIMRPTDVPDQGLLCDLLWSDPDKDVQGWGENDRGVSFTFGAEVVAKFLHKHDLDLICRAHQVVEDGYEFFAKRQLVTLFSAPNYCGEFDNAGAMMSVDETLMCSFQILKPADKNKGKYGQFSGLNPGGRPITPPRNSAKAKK

In general, IC50 refers to the concentration that inhibits the measured activity by half. Take `CCC(/C=C/C(=O)O)=C\CC[C@H](C)C[C@@H](C)CC[C@H](O)[C@H](C)C(=O)C[C@@H](O)[C@H](C)[C@@H](C)OC(=O)C[C@@H](O)C1=C(C)C(=O)OC1=O`: the IC50 entry in assay [1], in assay [3] and in assay [4] was “Not Active” throughout. The Ratio IC50 in assay [2] stood at 4.
On to `CCC(/C=C/C(=O)O)=C\[C@@H](O)C[C@H](C)C[C@@H](C)CC[C@H](O)[C@H](C)C(=O)C[C@@H](O)[C@H](C)[C@@H](C)OC(=O)C[C@@H](O)C1=C(C)C(=O)OC1=O`, for which the IC50 result in assay [1], in assay [3] and in assay [4] was “Not Active” throughout. Moreover, the Ratio IC50 in assay [2] amounted to 4.5.
In assay [5], `CCC(/C=C/C(=O)O)=C\C(=O)C[C@H](C)C[C@@H](C)CC[C@H](O)[C@H](C)C(=O)C[C@@H](O)[C@H](C)[C@@H](C)OC(=O)C[C@@H](O)C1=C(C)C(=O)OC1=O` yielded an IC50 of 28 µM.
As for `CCC(/C=C/C(=O)O)=C\[C@H](O)C[C@H](C)C[C@@H](C)CC[C@H](O)[C@H](C)C(=O)C[C@@H](O)[C@H](C)[C@@H](C)OC(=O)C[C@@H](O)C1=C(C)C(=O)OC1=O`, in assay [2], the Ratio IC50 is 3.8.
In the case of `CC/C(=C\CC[C@H](C)C[C@@H](C)CC[C@H](O)[C@H](C)C(=O)C[C@@H](O)[C@H](C)[C@@H](C)OC(=O)C[C@@H](O)C1=C(C)C(=O)OC1=O)C(O)CC(=O)O` (some centres undefined), the IC50 entry in assay [1], in assay [3] and in assay [4] was “Not Active” throughout. Also, the Ratio IC50 in assay [2] worked out at 3.8.

These data come from ChEMBL document CHEMBL3714768 (2012).
